Test results: PMC11677527, “Predicting Pharmacokinetics of Active Constituents in Spatholobi caulis by Using Physiologically Based Pharmacokinetic Models” (Pharmaceuticals, 2024)
Read-outs that look alike come from different tables or passages of the source.

Key:
[1] = Verification pharmacokinetic experiment in rats, SPC 60 g crude drug/kg by gavage, UFLC-MS/MS, DAS 2.0; assay type: in vivo, rat
Method in brief: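 Rats received SPC suspension at 60 g crude drug/kg by gavage. Orbital blood was taken at 0.083–12 h into heparin, and plasma 3′-methoxydaidzein, 8-O-methylretusin, daidzin and isolariciresinol were measured by UFLC-MS/MS (C18, MRM, carbamazepine internal standard). PK parameters were calculated from concentration-time curves.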

Caco-2 cell monolayer = tested on: Caco-2 cell monolayer; design: method as in PMID 36680806, PMID 26501241; details: Caco-2 cell monolayer model; cited from earlier work
[2] = Observed pharmacokinetics in rats after oral SPC (previous study); assay type: in vivo, rat; details: p.o. SPC
[3] = design: method as in PMID 34303214; details: rats, p.o. SPC 30 g crude drug/kg; doses of 1-4: 0.062, 0.11, 0.71, 1.31 mg/kg; cited from earlier work
[4] = compartment model parameters, DAS 2.0, rats p.o. SPC 60 g crude drug/kg, Mean, 5 rats
[5] = statistical moment parameters, DAS 2.0, rats p.o. SPC 60 g crude drug/kg, Mean, 5 rats
[6] = statistical moment parameters, DAS 2.0, rats p.o. SPC 60 g crude drug/kg, Mean, 5 rats, in µg·h²/mL

Structure (SMILES): COc1cc([C@H]2c3cc(O)c(OC)cc3C[C@@H](CO)[C@@H]2CO)ccc1O [Constituent 4, isolariciresinol]
- K10 [1, 4]: 7.512 h⁻¹
- K12 [1, 4]: 0.448 h⁻¹
- K21 [1, 4]: 0.247 h⁻¹
- Ka [1, 4]: 5.032 h⁻¹
- Tlag [1, 4]: 0 h
- V1/F [1, 4]: 29.573 L/kg
- t1/2Ka [1, 4]: 10.5 min
- t1/2α [1, 4]: 26 min
- concentration at 0.083 h ([1]; rat, plasma, oral, time 0.083 h, rats p.o. SPC 60 g crude drug/kg, doses of 1-4: 0.124, 0.22, 1.4, 2.62 mg/kg, 5 rats): 15.4 ng/mL
- concentration at 0.25 h ([1]; rat, plasma, oral, time 0.25 h, rats p.o. SPC 60 g crude drug/kg, doses of 1-4: 0.124, 0.22, 1.4, 2.62 mg/kg, 5 rats): 41.5 ng/mL
- concentration at 0.5 h ([1]; rat, plasma, oral, time 0.5 h, rats p.o. SPC 60 g crude drug/kg, doses of 1-4: 0.124, 0.22, 1.4, 2.62 mg/kg, 5 rats): 41.7 ng/mL
- concentration at 0.75 h ([1]; rat, plasma, oral, time 0.75 h, rats p.o. SPC 60 g crude drug/kg, doses of 1-4: 0.124, 0.22, 1.4, 2.62 mg/kg, 5 rats): 27.6 ng/mL
- concentration at 1 h ([1]; rat, plasma, oral, time 1 h, rats p.o. SPC 60 g crude drug/kg, doses of 1-4: 0.124, 0.22, 1.4, 2.62 mg/kg, 5 rats): 22.2 ng/mL
- concentration at 1.5 h ([1]; rat, plasma, oral, time 1.5 h, rats p.o. SPC 60 g crude drug/kg, doses of 1-4: 0.124, 0.22, 1.4, 2.62 mg/kg, 5 rats): 8.29 ng/mL
- concentration at 2 h ([1]; rat, plasma, oral, time 2 h, rats p.o. SPC 60 g crude drug/kg, doses of 1-4: 0.124, 0.22, 1.4, 2.62 mg/kg, 5 rats): 7.03 ng/mL
- concentration at 3 h ([1]; rat, plasma, oral, time 3 h, rats p.o. SPC 60 g crude drug/kg, doses of 1-4: 0.124, 0.22, 1.4, 2.62 mg/kg, 5 rats): 4.27 ng/mL
- concentration at 4 h ([1]; rat, plasma, oral, time 4 h, rats p.o. SPC 60 g crude drug/kg, doses of 1-4: 0.124, 0.22, 1.4, 2.62 mg/kg, 5 rats): 3.41 ng/mL
- concentration at 6 h ([1]; rat, plasma, oral, time 6 h, rats p.o. SPC 60 g crude drug/kg, doses of 1-4: 0.124, 0.22, 1.4, 2.62 mg/kg, 5 rats): 2.01 ng/mL
- AUC(0-t) ([1]; rat, plasma, po, 2.62 mg/kg, compartment model parameters, DAS 2.0, rats p.o. SPC 60 g crude drug/kg, Mean, 5 rats, read-out: AUC(0-t)): 46.4 ng·h/mL
- AUC(0-inf) ([1]; rat, plasma, po, 2.62 mg/kg, compartment model parameters, DAS 2.0, rats p.o. SPC 60 g crude drug/kg, Mean, 5 rats, read-out: AUC(0-∞)): 52.8 ng·h/mL
- CL/F ([1]; rat, plasma, po, 2.62 mg/kg, compartment model parameters, DAS 2.0, rats p.o. SPC 60 g crude drug/kg, Mean, 5 rats, read-out: CL/F (converted)): 1660 mL/min/kg
- half-life ([1]; rat, plasma, po, 2.62 mg/kg, compartment model parameters, DAS 2.0, rats p.o. SPC 60 g crude drug/kg, Mean, 5 rats, read-out: t1/2β (converted)): 1050 min
- AUC(0-t) ([1]; rat, plasma, po, 2.62 mg/kg, rats, p.o. SPC 60 g crude drug/kg, doses of 1-4: 0.124, 0.22, 1.42, 2.62 mg/kg, n = 5, read-out: AUC0→t Val.): 55.7 ng·h/mL
- AUC(0-inf) ([1]; rat, plasma, po, 2.62 mg/kg, rats, p.o. SPC 60 g crude drug/kg, doses of 1-4: 0.124, 0.22, 1.42, 2.62 mg/kg, n = 5, read-out: AUC0→∞ Val.): 59.3 ng·h/mL
- Cmax ([1]; rat, plasma, po, 2.62 mg/kg, rats, p.o. SPC 60 g crude drug/kg, doses of 1-4: 0.124, 0.22, 1.42, 2.62 mg/kg, n = 5, read-out: Cmax Val.): 41.7 ng/mL
- AUC(0-t) ([1]; rat, plasma, po, 2.62 mg/kg, statistical moment parameters, DAS 2.0, rats p.o. SPC 60 g crude drug/kg, Mean, 5 rats, read-out: AUC(0-t)): 55.7 ng·h/mL
- AUC(0-inf) ([1]; rat, plasma, po, 2.62 mg/kg, statistical moment parameters, DAS 2.0, rats p.o. SPC 60 g crude drug/kg, Mean, 5 rats, read-out: AUC(0-∞)): 59.3 ng·h/mL
- CL/F ([1]; rat, plasma, po, 2.62 mg/kg, statistical moment parameters, DAS 2.0, rats p.o. SPC 60 g crude drug/kg, Mean, 5 rats, read-out: CLz/F (converted)): 738 mL/min/kg
- Cmax ([1]; rat, plasma, po, 2.62 mg/kg, statistical moment parameters, DAS 2.0, rats p.o. SPC 60 g crude drug/kg, Mean, 5 rats, read-out: Cmax): 41.7 ng/mL
- MRT last ([1]; rat, plasma, po, 2.62 mg/kg, statistical moment parameters, DAS 2.0, rats p.o. SPC 60 g crude drug/kg, Mean, 5 rats, read-out: MRT(0-t)): 1.48 h
- MRT inf ([1]; rat, plasma, po, 2.62 mg/kg, statistical moment parameters, DAS 2.0, rats p.o. SPC 60 g crude drug/kg, Mean, 5 rats, read-out: MRT(0-∞)): 2.08 h
- Tmax ([1]; rat, plasma, po, 2.62 mg/kg, statistical moment parameters, DAS 2.0, rats p.o. SPC 60 g crude drug/kg, Mean, 5 rats, read-out: Tmax): 18 min
- Vd/F ([1]; rat, plasma, po, 2.62 mg/kg, statistical moment parameters, DAS 2.0, rats p.o. SPC 60 g crude drug/kg, Mean, 5 rats, read-out: Vz/F): 111 L/kg
- half-life ([1]; rat, plasma, po, 2.62 mg/kg, statistical moment parameters, DAS 2.0, rats p.o. SPC 60 g crude drug/kg, Mean, 5 rats, read-out: t1/2z (converted)): 104 min
- Cz [1, 5]: 1.39 µg/L
- VRT(0-t) [1, 5]: 2.067 h^2
- VRT(0-∞) [1, 5]: 6.027 h^2
- elimination rate constant [1, 5]: 0.412 h⁻¹
- AUMC(0-t) [1, 6]: 82.484
- AUMC(0-∞) [1, 6]: 123.911
- Papp (Caco-2 cell monolayer): 2.2e-06 cm/s
- time of slight secondary absorption peak [2]: 6 h
- AUC0→t Obs. [3]: 0.0347 µg·h/mL
- AUC0→∞ Obs. [3]: 0.0383 µg·h/mL
- Cmax Obs. [3]: 0.0262 µg/mL
- Tmax Obs. [3]: 18.6 min
